Measurements: patent publication US9907309B2 (priority 2010, dated 2018)
Where two headings read alike, the source gives them in different places.

Columns and labels:
Conditions in all cases: solo, growth at 405 nm 7 days after inoculation
Phytophtora infestans = format: cell-based
Alternaria solani = test system: Alternaria solani
Septoria tritici = test system: Septoria tritici

With C[C@]1(COC(=O)C2CC2)[C@@H]2C[C@H](O)[C@@]3(C)Oc4cc(-c5cccnc5)oc(=O)c4[C@H](O)[C@@H]3[C@@]2(C)CC[C@@H]1OC(=O)C1CC1 [Compound I, [(3S,4R,4aR,6S,6aS,12R,12aS,12bS)-3-(cyclopropanecarbonyloxy)-6,12-dihydroxy-4,6a,12b-trimethyl-11-oxo-9-(pyridin-3-yl)-1,2,3,4,4a,5,6,6a,12a,12b-decahydro-11H,12H-benzo[f]pyrano[4,3-b]chromen-4-yl]methyl cyclopropanecarboxylate] the Observed efficacy (Phytophtora infestans; 4 ppm) was 6%, the Observed efficacy (Alternaria solani; 1 ppm) was 0% and the Observed efficacy (Septoria tritici; 4 ppm) was 0%. It also gave an Observed efficacy (Septoria tritici; 63 ppm) of 0%.
With Cn1cc(C(=O)Nc2ccccc2-c2cc(F)c(F)c(F)c2)c(C(F)F)n1 [Fluxapyroxad, fluxapyroxad] the Observed efficacy (Septoria tritici; 0.063 ppm) was 54%.
In the case of COC(=O)N(OC)c1ccccc1COc1ccn(-c2ccc(Cl)cc2)n1 [Pyraclostrobin, pyraclostrobin], the Observed efficacy (Phytophtora infestans; 0.063 ppm) is reported as 28%, the Observed efficacy (Alternaria solani; 0.001 ppm) is reported as 16% and the Observed efficacy (Septoria tritici; 0.004 ppm) is reported as 63%.
